This passage reports IC50 results from the Kinase Knowledgebase extract (Sharma et al. 2016).

For the test, the target named is EGFR (human) (UniProt P00533).
Sequence of EGFR (human) (P00533 whole entry, looked up): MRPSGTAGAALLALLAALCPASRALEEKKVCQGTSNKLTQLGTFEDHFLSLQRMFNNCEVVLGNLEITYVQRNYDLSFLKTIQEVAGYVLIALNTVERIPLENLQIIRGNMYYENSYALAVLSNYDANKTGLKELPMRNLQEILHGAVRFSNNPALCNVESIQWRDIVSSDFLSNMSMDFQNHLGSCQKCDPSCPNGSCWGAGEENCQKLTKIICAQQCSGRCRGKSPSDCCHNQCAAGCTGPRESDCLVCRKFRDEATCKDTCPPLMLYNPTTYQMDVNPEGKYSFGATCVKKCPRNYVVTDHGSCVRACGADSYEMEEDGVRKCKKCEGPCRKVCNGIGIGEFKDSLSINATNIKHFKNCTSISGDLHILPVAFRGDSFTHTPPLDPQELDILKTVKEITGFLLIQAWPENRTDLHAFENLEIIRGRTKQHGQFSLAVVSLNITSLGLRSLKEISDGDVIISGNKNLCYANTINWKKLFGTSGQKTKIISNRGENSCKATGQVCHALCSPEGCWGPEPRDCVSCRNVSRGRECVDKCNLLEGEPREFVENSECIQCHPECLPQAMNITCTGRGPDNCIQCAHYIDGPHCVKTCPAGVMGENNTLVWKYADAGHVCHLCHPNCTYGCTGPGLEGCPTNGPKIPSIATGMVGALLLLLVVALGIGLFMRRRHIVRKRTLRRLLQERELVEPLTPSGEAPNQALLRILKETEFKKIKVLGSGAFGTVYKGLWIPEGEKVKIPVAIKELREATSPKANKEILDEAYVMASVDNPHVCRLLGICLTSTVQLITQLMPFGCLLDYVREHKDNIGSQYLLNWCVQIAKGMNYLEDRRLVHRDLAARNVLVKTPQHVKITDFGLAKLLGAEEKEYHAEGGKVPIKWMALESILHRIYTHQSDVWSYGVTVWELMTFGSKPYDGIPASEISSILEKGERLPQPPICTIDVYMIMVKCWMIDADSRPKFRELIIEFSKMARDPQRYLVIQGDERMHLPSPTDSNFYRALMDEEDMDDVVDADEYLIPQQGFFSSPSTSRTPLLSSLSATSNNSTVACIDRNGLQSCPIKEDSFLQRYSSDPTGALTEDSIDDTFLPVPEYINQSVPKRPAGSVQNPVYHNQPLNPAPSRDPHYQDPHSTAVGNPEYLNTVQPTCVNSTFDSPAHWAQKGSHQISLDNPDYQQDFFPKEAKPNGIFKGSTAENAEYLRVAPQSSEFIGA

By IC50 is commonly meant the midpoint of a concentration-inhibition curve. On to `Nc1ncc(-c2cccc(C(=O)NCc3ccc(Cl)cc3)c2)nc1C(=O)N[C@H]1CCCNC1`, for which the IC50 was at least 10 µM.

The compound `COc1ccc(CNC(=O)c2cccc(-c3cnc(N)c(C(=O)N[C@H]4CCCNC4)n3)c2)cc1` registered an IC50 of at least 10 µM.

`Nc1ncc(-c2cccc(C(=O)NCc3ccc(OC(F)(F)F)cc3)c2)nc1C(=O)N[C@H]1CCCNC1` showed a half-maximal inhibitory concentration (IC50) of at least 10 µM.

As to `CCNCCOc1cccc(-c2cnc(N)c(C(=O)N[C@H]3CCCNC3)n2)c1`, the concentration for half-maximal inhibition (IC50) was in the range of 1 to 10 µM. Consider `Nc1ncc(-c2cccc(NC(=O)c3cnc4ccccc4c3)c2)nc1C(=O)N[C@H]1CCCNC1`, for which the IC50 is 1 to 10 µM. To `CN(C)c1ccc(CNC(=O)c2cccc(-c3cnc(N)c(C(=O)N[C@H]4CCCNC4)n3)c2)cc1` belongs at least 10 µM.

In turn, `Nc1ncc(-c2cccc(NC(=O)Cc3ccc(F)cc3F)c2)nc1C(=O)N[C@H]1CCCNC1` had a 50% inhibitory concentration (IC50) of 0.05 to 1 µM. Next, `Nc1ncc(-c2cccc(C(=O)NCc3ccc(Cl)cc3F)c2)nc1C(=O)N[C@H]1CCCNC1`: at least 10 µM; `Nc1ncc(-c2cccc(CN[C@@H]3c4ccccc4C[C@@H]3O)c2)nc1C(=O)N[C@H]1CCCNC1`: 1 to 10 µM. Next, `Nc1ncc(-c2cccc(CNC(=O)Nc3ccc(-c4ccccc4)cc3)c2)nc1C(=O)N[C@H]1CCCNC1`: at least 10 µM. To `Nc1ncc(-c2cccc(CNC(=O)c3ccc(F)cc3)c2)nc1C(=O)N[C@H]1CCCNC1` belongs 1 to 10 µM.

Consider `Nc1ncc(-c2cccc(CNC(=O)c3cccs3)c2)nc1C(=O)N[C@H]1CCCNC1`, for which the IC50 was in the range of 1 to 10 µM. In the case of `Cc1ccc(CNC(=O)c2cccc(-c3cnc(N)c(C(=O)N[C@H]4CCCNC4)n3)c2)c(F)c1F`, the IC50 was at least 10 µM.
